Patent US20080227688A1, “Inhibition of viral replication” (priority 2007, published 2008)

Test system: reovirus
Type: cell-based, Dearing strain of reovirus serotype 3

C[C@H](NC(=O)[C@H](Cc1ccccc1)NC(=O)OCc1ccccc1)C(=O)CF [Z-FA-FMK, N-benzyloxycarbonyl-Phe-Ala-fluoromethylketone]
cure of persistent reovirus infection (western blot, reovirus antiserum): cured persistently infected cells
